The record followed here is article PMC12169669, “Regio- and Stereoselective Synthesis of Nitro-fatty Acids as NRF2 Pathway Activators Working under Ambient or Hypoxic Conditions” (Journal of Medicinal Chemistry, 2025).

Holding throughout (format): cell-based, mouse
For assay [1], the system named is NRF2. As to the kind of experiment: NRF2 stabilization in bone marrow cells (Western blot, whole-cell lysates). The following applies: BMCs, 2 μM, 1 h. An excerpt:
(§1) Primary bone marrow cells (BMCs) were isolated from 8–12-week-old male C57BL/6 mice (25–30 g, AnLab, Czech Republic). Mice were housed under standard conditions. BMCs were isolated as follows: The day before isolation, phosphate-buffered saline (PBS), ACK Lysis Buffer (A10492-01, Thermo Fisher Scientific), and Iscove’s Modified Dulbecco’s Medium (IMDM) (12440-053, Thermo Fisher Scientific) were placed in a hypoxic chamber (InvivO2 400, Baker Ruskinn, UK) with adjustable oxygen control to equilibrate for the target oxygen concentrations. On the day of the experiment, animals were euthanized using ketamine/xylazine, and bilateral femurs were extracted. BMCs were flushed with hypoxic (1% O2 unless stated otherwise) PBS supplemented with 2% fetal bovine serum (FBS; low endotoxin, FB-1101/500, Biosera, France). After hemolysis at room temperature using hypoxic ACK Lysis Buffer, nucleated BMCs were washed with hypoxic PBS + 2% FBS and counted using a TC20 automated cell counter (Bio-Rad). Cells were kept under hypoxic conditions prior to treatment. The medium for BMC culture, consisting of IMDM with 2% FBS and 1% penicillin/streptomycin (LM-A4118/100, Biosera, France), was supplemented with 10 ng/mL mouse IL-3, 10 ng/mL mouse IL-6, and 50 ng/mL mouse stem cell factor - SCF (213-13, 216-16, and 250-03, respectively; all from PeproTech). Cells were cultured at 37 °C in a humidified atmosphere containing 5% CO2 and the specified oxygen concentrations (21%, 4%, or 1%).
(§2) Briefly, 1.5 × 10^6 BMCs were placed in 0.2 mL of complete medium in 1.5 mL microtubes and incubated with 2 μM NO2FAs or the control (medium only) for 1 (NRF2), 4 (heme oxygenase-1, HO-1), or 7 (glutamate-cysteine ligase modifier subunit, GCLM) hours at the specified oxygen levels (21%, 4%, or 1%). Cells were then spun down and washed with PBS (from this step onward, cells were processed under atmospheric conditions). Next, cells were lysed in 60 μL RIPA buffer (89901, Thermo Fisher Scientific) containing protease and phosphatase inhibitors cocktail (78442, Thermo Fisher Scientific). Cell lysates were sonicated and centrifuged at 15,000g for 3 min at 4 °C, and 15 μL of lane marker (3900, Thermo Fisher Scientific) was added to the supernatants. Samples were boiled for 3 min at 95 °C. Equal volumes of lysates (15–45 μL/well) were loaded onto 7–15% SDS-polyacrylamide gels. Proteins were then transferred onto PVDF membranes (IPVH85R, EMD Millipore Corp.) and blocked with 5% nonfat dry milk in TBST. Membranes were incubated overnight at 4 °C with the following primary antibodies: anti-β-actin (1:1000; #3700, Cell Signaling Technology), antivinculin (1:10,000; #SAV9264, Sigma-Aldrich), anti-NRF2 (1:500; A308758, Lot 38410, Antibodies.com, UK), anti-HO-1 (1:1000; #43966, Cell Signaling Technology), antihistone H3 (1:2000; #4499, Cell Signaling Technology), or anti-GCLM (1:100; sc-55586, Santa Cruz Biotechnology). This was followed by incubation with corresponding HRP-linked secondary antibodies (antimouse IgG, #7076, 1:1000–5000; or antirabbit IgG, #7074, 1:1000–2000; both from Cell Signaling Technology) for 1 h at room temperature. Protein bands were visualized using an enhanced chemiluminescent substrate (SuperSignal 34577/34095, Thermo Fisher Scientific). The optical densities of detected proteins were measured using ImageJ v1.52 (NIH).
2 Stabilization of NRF2 by tested NO2FA derivatives. NO 2 FA derivatives stabilize NRF2 in mouse bone marrow cells (BMCs). Nucleated BMCs were cultured under varying oxygen conditions (21%, 4%, and 1%) and treated for 1 h with 2 μM of the tested NO 2 FAs, followed by analysis of NRF2 expression in whole-cell lysates. Results are shown as the fold change relative to control cells across different oxygen culture conditions (A–C). Data are expressed as mean ± SD from 3–4 independent experiments (n = 3–4). Statistical analysis was performed using one-way ANOVA with Dunnett’s multiple comparisons test (* p < 0.05).
(In general: Immunoblotting shows a protein as a band on a membrane.)

In another assay the test system is HO-1. Kind of assay: HO-1 protein level in BMCs (Western blot). The note with it: 2 μM, 4 h; for HO-1 increase at 1% oxygen relative to atmospheric conditions: 1% vs 21% oxygen.
Text: as §1, §2
4 Expression of NRF2-target proteins HO-1 and GCLM. NO 2 FA derivatives upregulate the expression of NRF2-target proteins in mouse BMCs. BMCs were cultured under 21% or 1% oxygen conditions and treated with 2 μM of the tested NO 2 FAs for 4 h (A, B) or 7 h (C, D). HO-1 (A, B) and GCLM (C, D) expression in whole-cell lysates was subsequently analyzed. Results are presented as the fold change relative to control cells across different oxygen culture conditions. Data are expressed as mean ± SD from 3–5 independent experiments (n = 3–5). […]

For assay [2], the system named is NRF2. As to the kind of experiment: NRF2 translocation assay (nuclear fraction, Western blot). The following applies: BMCs, 2 μM, 1 h, 1% oxygen; for translocation of NRF2 to the nucleus, fold change relative to control: nuclear fraction. The procedure: For the NRF2 translocation assays, 5.5 × 10^6 BMCs were incubated in 0.5 mL of complete medium with 2 μM NO2FAs or the control for 1 h in 1.5 mL microtubes, but only at 1% oxygen. Cytosol, membrane and nuclear cell compartments were isolated with a Cell Fractionation Kit (9038, Cell Signaling Technology) according to the manufacturer’s instructions. Equal volumes of nuclear lysates (20 μL/well) were loaded onto 7–15% SDS-polyacrylamide gels. Histone H3 was used as the loading control for the nuclear fraction.
5 Subcellular localization of NRF2. NO 2 FA derivatives promote nuclear translocation of NRF2 in mouse BMCs. BMCs were cultured under 1% oxygen conditions and treated for 1 h with 2 μM of 10-NO 2 OA, 10-NO 2 LA, or 10-NO 2 SA. A cell fractionation kit was used to isolate the nuclear fraction (A), followed by the detection of NRF2 and histone H3 (used as a control nuclear protein). Western blot results (A) are shown as the fold change relative to control cells. Data are expressed as mean ± SD from two independent experiments (n = 2). Statistical analysis was performed using one-way ANOVA with Dunnett’s multiple comparisons test (* p < 0.05; *** p < 0.001). (B) Representative immunocytochemistry staining of BMCs with NRF2 antibody. BMCs were cultured in 1% oxygen followed by NRF2 and nuclei (DAPI) staining. Treatment with 10-NO2OA increased the colocalization of NRF2 with the nucleus (scale bar: 20 μm).

With `CCCCCCCC/C=C(\CCCCCCCC(=O)O)[N+](=O)[O-]` [9-NO2OA, (9E)-9-Nitro-oleic Acid], in the assay on NRF2 [1] (1% oxygen), the “NRF2 expression (stabilization), fold change relative to control” value is given as “significantly increased”. In addition, in the assay on HO-1, the “HO-1 increase at 1% oxygen relative to atmospheric conditions” value was “roughly 1.8 fold”. The “HO-1 protein level, fold change relative to control” value with HO-1 (21% oxygen) was “significantly increased”.

For the compound `CCCCCC/C=C/C=C(\CCCCCCCC(=O)O)[N+](=O)[O-]` [9-NO2cLA, (9E,11E)-9-Nitro Conjugated Linoleic Acid], the “NRF2 expression (stabilization), fold change relative to control” value with NRF2 [1] (1% oxygen) and with NRF2 [1] (4% oxygen) was “nonsignificant increase” in each case.

`CCCCC/C=C\C/C(=C\CCCCCCCC(=O)O)[N+](=O)[O-]` [10-NO2LA, (9E,12Z)-10-Nitro Linoleic Acid]: the “NRF2 expression (stabilization), fold change relative to control” value in the assay with NRF2 [1] (4% oxygen) is on record as “significantly increased”. The “HO-1 protein level, fold change relative to control” value in the assay on HO-1 (1% oxygen) is listed as “only increased HO-1 under hypoxic conditions”. Also, the “translocation of NRF2 to the nucleus, fold change relative to control” value (shortened to “translocation … fold change relative to control”) in the assay on NRF2 [2] is “significantly increased”.

Consider `CCCCCCCC/C(=C\CCCCCCCC(=O)O)[N+](=O)[O-]` [10-NO2OA, (9E)-10-Nitro-oleic Acid], for which the “NRF2 expression (stabilization), fold change relative to control” value in the assay on NRF2 [1] (1% oxygen) is “significantly increased”. Besides, in the assay with HO-1, the “HO-1 increase at 1% oxygen relative to atmospheric conditions” value is about 2.2 fold. Besides, the “HO-1 protein level, fold change relative to control” value in the assay with HO-1 (21% oxygen) was “significantly increased”. Besides, in the assay on NRF2 [2], the “NRF2 translocation activity relative to 10-NO2LA” value is given as “ca. 1.7 fold” and the “translocation … fold change relative to control” value was “significantly increased”.

On to `CCCCCCCCC(CCCCCCCCC(=O)O)[N+](=O)[O-]` (stereo not shown) [10-NO2SA, 10-Nitro Stearic acid], for which the “NRF2 expression (stabilization), fold change relative to control” value in the assay with NRF2 [1] (1% oxygen), in the assay on NRF2 [1] (4% oxygen) and in the assay on NRF2 [1] (21% oxygen) was “no effect” each time. Moreover, the “HO-1 protein level, fold change relative to control” value with HO-1 (1% oxygen) and in the assay on HO-1 (21% oxygen) was “no significant effects” each time. For the same compound, the “translocation … fold change relative to control” value in the assay with NRF2 [2] is listed as “no effects”.
